# Experimental data from patent US9980949B2, “SNS-595 and methods of using the same” (Sunesis Pharmaceuticals, Inc., priority 2004, dated 2018).
# Columns and labels:
# HCT116 cells = experiment: Combination studies with SNS-595, MTT assay, median-effect Combination Index; assay type: cell-based; conditions: combination with SNS-595 at constant ratio, 72 hours, <0.90 synergistic, 0.90-1.10 additive, >1.10 antagonistic
# Experimental: The final DMSO concentration was 1% in the assay plate. The treated cells were incubated for 72 hours at 37° C., 5% CO2 before adding 20 μl/well 3-[4,5-dimethylthiazol-2-yl]-2,5-diphenyltetrazolium bromide (MTT) for 1 hour followed by 100 μl/well N,N-dimethyl formamide/SDS lysis buffer for at least 16 hours. The plates were read for absorbance at a wavelength of 595 nm. The data was worked up using the median-effect method that quantifies the interaction using a Combination Index (calculated using the software for dose effect analysis, Calcusyn V2(Biosoft). A combination is said to be additive if it yields a Combination Index of 0.90-1.10. A combination is said to be synergistic if it yields a Combination Index less than 0.90 and a combination is said to be antagonistic if it yields a Combination Index of more than 1.10. All Combination Index calculations were at a Fa value of 0.5, the point where 50% of the cells were dead. See Table 2.
# various cells = experiment: Cellular potency (EC50) in various cells; assay type: cell-based
# From the text: (§1) SNS-595 is a cell cycle inhibitor and arrests cells at the G2 interface. Initially, the activity of SNS-595 was believed due to topoisomerase II inhibition.
# [1] = tested on: stable variant of HCT-116 cells; experiment: Sensitivity of a stable SNS-595-resistant variant of HCT-116 cells; assay type: cell-based; conditions: stable variant with induced resistance
# From the text: Consistent with this mechanism, cells with induced resistance to SNS-595 also have alterations in the DNA-PK pathway. […] Conversely, decreased levels of DNA-PK or its activity (e.g. in the presence of an inhibitor) is associated with an increased sensitivity to SNS-595.
# [2] = tested on: 2-deoxyglucose treated cells; experiment: Activity in cells with topoisomerase II levels modulated by 2-deoxyglucose; assay type: cell-based; conditions: topoisomerase II levels modulated using 2-deoxyglucose
# From the text: as §1
# DNA-PK pathway [3] = experiment: Dose-dependent responses of DNA-PK pathway members in HCT 116 cells (FIG. 2); assay type: cell-based; conditions: H2AX, c-Abl, p53, p73, p21, caspase-9, caspase-3
# From the text: (§2) This damage impedes the ability of the cell to synthesize DNA and lengthens the time the cell spends in the S phase. […] When the DNA damage is sufficiently severe such that the double-strand breaks cannot be repaired through non-homologous end joining (NHEJ), the cell rapidly enters apoptosis. Some cells are able to reach the G2 phase but are subsequently arrested (mediated by cdc2/cyclin B) because the cells are too damaged to enter into the M phase and also eventually becomes apoptotic.
# [4] = tested on: HCT-116 colon cancer cells; experiment: Inhibition of cell growth (MTT) by SNS-595 in absence and presence of wortmannin; assay type: cell-based; conditions: HCT-116 cells, 100 nM wortmannin for 8-16 hours, 72 hours
# Experimental: (§3) HCT-116 colon cancer cells were plated at a density of approximately […] with 100 μl/well of RPMI-1640 media (supplemented with 10% fetal bovine serum, 1% antibiotic/antimycotic, and 1.5% sodium bicarbonate) in a 96-well clear tissue-culture treated plate for 24 hours at 37° C., 5% CO2. Some cells were treated with 100 nM wortmannin for 8-16 hours. SNS-595 was then added as a serial dilution, and cells were incubated for 72 hours at 37° C., 5% CO2. MTT (20 μl/well of a 5 mg/ml stock solution) was added for 1 hour, followed by N,N-dimethyl formamide/SDS lysis buffer for at least 16 hours. Absorbance was monitored at 595 nm and data were fit by nonlinear regression to determine the inhibition of cell growth (IC50) by SNS-595 in the absence and presence of wortmannin. […] Similar results were seen when DNA-PK null cell line (approximately a 10 fold sensitization) was used instead of HCT-116 cells.
# [5] = Pharmacokinetics of SNS-595 in cancer patients; assay type: in vivo, human; conditions: for C0: human, intravenous
# Experimental: SNS-595 was administered to enrolled patients for up to six cycles. A cycle is defined as a three-week period, with SNS-595 administered on the first day of each cycle (day 0), followed by at least 21 days of observation. SNS-595 was administered to cohorts of at least 3 patients and dose escalation occurred by sequential cohort.
# topoisomerase II = experiment: Catalytic inhibition of topoisomerase II (decatenation and relaxation of supercoiled DNA); assay type: biochemical; conditions: inhibits decatenation and relaxation of supercoiled DNA, no formation of cleavable complexes
# From the text: as §1
# DNA-PK null cell line = experiment: Inhibition of cell growth (MTT) by SNS-595 in DNA-PK null cell line; assay type: cell-based; conditions: DNA-PK null cell line instead of HCT-116 cells
# Experimental: as §3
# [6] = tested on: cells where G2 arrest is abrogated; experiment: Cytotoxicity in cells where G2 arrest is abrogated by caffeine; assay type: cell-based; conditions: caffeine inhibits both ATM and ATR
# From the text: As shown by FIG. 1, ATM, ATR, and DNA-PK are three central DNA sensors/effectors that depending on the level of DNA damage that is detected within an individual cell, direct the cell into one of several outcomes including DNA repair, G2 arrest or apoptosis.
# [7] = Solubility in acidic compositions; assay type: physicochemical; conditions: acidic compositions (<pH 4)
# Experimental: An illustrative example of a suitable composition comprises: 10 mg SNS-595 per mL of aqueous solution of 4.5% sorbitol that is adjusted to pH 2.5 with methanesulfonic acid. One protocol for making such a solution includes the following for making a 100 mg/10 mL presentation: 100 mg of SNS-595 and 450 mg D-sorbitol are added to distilled water; the volume is brought up to a volume of 10 mL; and the pH of the resulting solution is adjusted to 2.5 with methanesulfonic acid. The resulting composition is also suitable for lyophilization. The lyophilized form is then reconstituted with sterile water to the appropriate concentration prior to use.
# non-proliferating cells = assay type: cell-based
# From the text: as §2, with “Treatment with SNS-595 results in an increase in the number of double-strand DNA breaks that form during the S phase. This” for “This”
# DNA-PK pathway [8] = experiment: Pharmacodynamic study: DNA-PK pathway members in HCT116 xenograft tumors (Western blots); assay type: in vivo, Nu/nu mice; conditions: IV bolus 20 or 40 mg/kg, 1-24 hours post dose, FIG. 3
# Experimental: Nu/nu mice (ca. 25 grams) were injected with HCT116 cells (which were obtained from the ATCC) in the hind flank at 5 million cells with 50% matrigel (Becton-Dickinson). Tumors were allowed to grow to 400 mm^3. Xenograft bearing animals were then given either an IV bolus injection of SNS-595 (20 or 40 mg/kg) in the tail vein or a saline vehicle. At prescribed time points (1, 2, 4, 8, 16, and 24 hours post dose), animals were anesthetized with CO2, blood was taken via terminal cardiac puncture, and animals were sacrificed. Tumors were excised, pulverized using liquid nitrogen-cooled mortar and pestle, and flash-frozen in liquid nitrogen. Tumor lysates were made from pulverized samples by addition of lysis buffer. The protein concentrations of the DNA-PK pathway members were determined by Western blots. Approximately 25 micrograms of protein was loaded per lane on an SDS-PAGE gel. Proteins were separated by gel electrophoresis, blotted onto nitrocellulose membranes, and detected using the following antibodies: H2AX, phosphorylated at […] (Cell Signaling, catalog no. 2577L); p53, phosphorylated at S15 (Cell Signaling, catalog no. 9284S); p53, phosphorylated at S37 (Cell Signaling, catalog no. 9289S); p21 (Cell Signaling, catalog no. 2946); cdc2, phosphorylated at Y15 (Calbiochem, catalog no. 219437); cyclin B (Santa Cruz, catalog no. sc-594 (H-20)); p73, phosphorylated at […] […]
smiles,measurement,setting,value
N.N.O=C([O-])C1(C(=O)[O-])CCC1.[Pt+2] [Carboplatin],Combination Index @ Fa = 0.5,HCT116 cells,0.54
N.N.[Cl][Pt][Cl] [Cisplatin],Combination Index @ Fa = 0.5,HCT116 cells,0.54
CC(=O)O[C@@]12CO[C@@H]1C[C@H](O)[C@@]1(C)C(=O)[C@H](O)C3=C(C)[C@@H](OC(=O)[C@H](O)[C@@H](NC(=O)OC(C)(C)C)c4ccccc4)C[C@@](O)([C@@H](OC(=O)c4ccccc4)[C@H]21)C3(C)C [Docetaxel],Combination Index @ Fa = 0.5,HCT116 cells,2.00
COC1=C2C[C@@H](C)C[C@H](OC)[C@H](O)[C@@H](C)/C=C(\C)[C@H](OC(N)=O)[C@@H](OC)/C=C\C=C(/C)C(=O)NC(=CC1=O)C2=O [Geldanamycin],Combination Index @ Fa = 0.5,HCT116 cells,0.47
Cn1cnc2c(NCc3ccccc3)nc(NCCO)nc21 [Olomucine],Combination Index @ Fa = 0.5,HCT116 cells,1.00
CC[C@H](CO)Nc1nc(NCc2ccccc2)c2ncn(C(C)C)c2n1 [Roscovitine],Combination Index @ Fa = 0.5,HCT116 cells,1.10
"CN[C@H]1CN(c2ccc3c(=O)c(C(=O)O)cn(-c4nccs4)c3n2)C[C@@H]1OC [SNS-595, (+)-1,4-dihydro-7-[(3S,4S)-3-methoxy-4-(methylamino)-1-pyrrolidinyl]-4-oxo-1-(2-thiazoyl)-1,8-naphthyridine-3-carboxylic acid]","difference in potency, cellular EC50 versus biochemical inhibition of topoisomerase II",various cells,at least a ten-fold difference in increased potency
same,sensitivity of resistant HCT-116 variant relative to HCT-116 cells,[1],approximately ten fold less sensitive
same,difference in activity between 2-deoxyglucose treated cells and untreated cells,[2],essentially no difference in activity
same,activation of DNA-PK mediated repair and apoptotic cellular machinery,DNA-PK pathway [3],"activates, in a dose dependent manner"
same,IC50 lower in the presence of wortmannin than in its absence,[4],3-6 fold
same,relation of dose to AUC∞,[5]; dose escalation by sequential cohort,linear with AUC∞
same,C0,"[5]; 3 mg/m2, plasma, dose 3 mg/m^2",153 ng/mL
same,C0,"[5]; 6 mg/m2, plasma, dose 6 mg/m^2",377 ng/mL
same,C0,"[5]; 12 mg/m2, plasma, dose 12 mg/m^2",2890 ng/mL
same,C0,"[5]; 24 mg/m2, plasma, dose 24 mg/m^2",2920 ng/mL
same,C0,"[5]; 48 mg/m2, plasma, dose 48 mg/m^2",1980 ng/mL
same,C0,"[5]; 60 mg/m2, plasma, dose 60 mg/m^2",4800 ng/mL
same,AUCINF_obs,"[5]; plasma, dose 3 mg/m^2",1139.55 ng·h/mL
same,Cl_obs,"[5]; plasma, dose 3 mg/m^2",1.14 mL/min/kg
same,Cmax,"[5]; plasma, dose 3 mg/m^2",138.80 ng/mL
same,HL,"[5]; plasma, dose 3 mg/m^2",16.27 h
same,MRTINF_obs,"[5]; plasma, dose 3 mg/m^2",21.95 h
same,Vss_obs,"[5]; plasma, dose 3 mg/m^2",1.44 L/kg
same,Vz_obs,"[5]; plasma, dose 3 mg/m^2",1.55 L/kg
same,Cl_obs,"[5]; plasma, dose 6 mg/m^2",0.71 mL/min/kg
same,Cmax,"[5]; plasma, dose 6 mg/m^2",347.00 ng/mL
same,HL,"[5]; plasma, dose 6 mg/m^2",20.69 h
same,Vss_obs,"[5]; plasma, dose 6 mg/m^2",1.24 L/kg
same,Vz_obs,"[5]; plasma, dose 6 mg/m^2",1.28 L/kg
same,AUCINF_obs,"[5]; plasma, dose 12 mg/m^2",6329.15 ng·h/mL
same,Cl_obs,"[5]; plasma, dose 12 mg/m^2",0.76 mL/min/kg
same,Cmax,"[5]; plasma, dose 12 mg/m^2",2246.67 ng/mL
same,HL,"[5]; plasma, dose 12 mg/m^2",17.81 h
same,Vss_obs,"[5]; plasma, dose 12 mg/m^2",1.07 L/kg
same,Vz_obs,"[5]; plasma, dose 12 mg/m^2",1.17 L/kg
same,AUCINF_obs,"[5]; plasma, dose 24 mg/m^2",12655.32 ng·h/mL
same,AUClast,"[5]; plasma, dose 24 mg/m^2",11133.03 ng·h/mL
same,Cl_obs,"[5]; plasma, dose 24 mg/m^2",0.83 mL/min/kg
same,Cmax,"[5]; plasma, dose 24 mg/m^2",2703.33 ng/mL
same,HL,"[5]; plasma, dose 24 mg/m^2",16.14 h
same,Vss_obs,"[5]; plasma, dose 24 mg/m^2",1.06 L/kg
same,Vz_obs,"[5]; plasma, dose 24 mg/m^2",1.15 L/kg
same,AUCINF_obs,"[5]; plasma, dose 48 mg/m^2",27347.38 ng·h/mL
same,Cl_obs,"[5]; plasma, dose 48 mg/m^2",0.99 mL/min/kg
same,Cmax,"[5]; plasma, dose 48 mg/m^2",2868.00 ng/mL
same,HL,"[5]; plasma, dose 48 mg/m^2",21.32 h
same,Vss_obs,"[5]; plasma, dose 48 mg/m^2",1.48 L/kg
same,Vz_obs,"[5]; plasma, dose 48 mg/m^2",1.57 L/kg
same,Cl_obs,"[5]; plasma, dose 60 mg/m^2",0.83 mL/min/kg
same,Cmax,"[5]; plasma, dose 60 mg/m^2",4537.50 ng/mL
same,HL,"[5]; plasma, dose 60 mg/m^2",17.63 h
same,Vss_obs,"[5]; plasma, dose 60 mg/m^2",1.08 L/kg
same,Vz_obs,"[5]; plasma, dose 60 mg/m^2",1.20 L/kg
same,IC50,topoisomerase II,~5 µM
same,sensitization to SNS-595,DNA-PK null cell line,~10 fold
same,"difference in EC50 values, caffeine-treated (G2 arrest abrogated) versus untreated cells",[6],essentially no difference in EC50 values
same,solubility,[7],increased solubility
same,lethality to non-proliferating cells,non-proliferating cells,non-lethal to non-proliferating cells
same,levels of DNA-PK pathway members in tumors upon treatment,DNA-PK pathway [8],activated in tumors
COC[C@H]1OC(=O)c2coc3c2[C@@]1(C)C1=C(C3=O)[C@@H]2CCC(=O)[C@@]2(C)C[C@H]1OC(C)=O [Wortmannin],Combination Index @ Fa = 0.5,HCT116 cells,0.42
